The values that follow come from publication PMC7010025 (EFSA Journal, 2017).

For data set [1], the system named is S. Typhimurium TA98, TA100, TA1535, TA1537 Escherichia coli WP2uvrA. The note with it: ref Nucro‐Technics, 2011a, cited from earlier work; for Increase in colony counts per plate vs negative controls: positive controls.
For data set [2] the following is noted: cited from earlier work; for Decarboxylation product concentration: starting batch held ~0.4% S9379.
The test system of data set [3] is primary human lymphocytes. Conditions: ref Nucro‐Technics, 2011b, cited from earlier work; for Cells with structural chromosomal aberrations: 20 h without S9‐mix.
The conditions of data set [4]: oral dosing in rat; ref Senomyx, 2011b; cited from earlier work.
The conditions of data set [5]: cited from earlier work; for Dry powder stability: 100°C up to 24 h.
The subject of data set [6] is bone marrow polychromatic erythrocytes. The note with it: ref Nucro‐Technics, 2011c, cited from earlier work.
For data set [7] the following is noted: ref applicant dossier, cited from earlier work.
For data set [8] the following is noted: rat, 60‐min incubation; ref PharmOptima, 2011; cited from earlier work.
Data set [9] concerns Salmonella Typhimurium strains, TA98 and TA100. Conditions: up to 5,000 μg/plate, ref BioReliance, 2011, cited from earlier work.
The conditions of data set [10]: gavage, gestation days 6 through 20; ref WIL Research, 2012a; cited from earlier work.
The conditions of data set [11]: male and female rats, highest dose tested; ref MPI, 2011b; cited from earlier work.
For data set [12] the following is noted: human, 60‐min incubation; ref PharmOptima, 2011; cited from earlier work.
For data set [13] the following is noted: ref WIL Research, 2012b; cited from earlier work.
The conditions of data set [14]: ref Senomyx, 2011a, cited from earlier work.
The conditions of data set [15]: read-out: Combined mean Cmax; diet 100 mg/kg per day, day 7; ref MPI, 2011b; cited from earlier work.
A further data set in a line: Margins of safety. Conditions: child; developmental toxicity NOAEL vs chronic APET.
For data set [16] the following is noted: 10 mg/kg oral, ref Senomyx, 2013, cited from earlier work; for Average recovered from faeces and urine: 72‐h collection.
Where [17] appears, read: cake, 177°C 30 min, ref Senomyx, 2016.
Where [18] appears, read: cookie, 204°C 8 min, ref Senomyx, 2016.
Where [19] appears, read: hard candy, 149°C ~30 min, ref Senomyx, 2016.
Setting [20] is: sulfate salt in sugar cookie, 177°C 10 min, 18 mg/kg.
Setting [21] is: cake, 177°C 30 min, nominal 5 mg/kg, ref Senomyx, 2016.
[22] abbreviates: cookie, 204°C 8 min, nominal 5 mg/kg, ref Senomyx, 2016.
Where [23] appears, read: hard candy, 149°C ~30 min, nominal 15 mg/kg, ref Senomyx, 2016.
Where [24] appears, read: 100 mg/kg per day gavage, day 7.

Values after ≈ are worked out from the molar mass of the structure shown. “Also recorded” adds a separate entry of the source. Read-outs that look alike come from different tables or passages of the source.

On to `Nc1ccc2cc3ccccc3cc2c1` [2‐aminoanthracene], for which, in data set [1] (experiments with S9‐mix), the “Increase in colony counts per plate vs negative controls” value (“Increase in colony counts per plate” for short) was ≥ 3.1 fold.

With `O=[N+]([O-])c1ccc2c(c1)Cc1ccccc1-2` [2‐nitrofluorene], the “Increase in colony counts per plate” value in data set [1] (experiments without S9‐mix) is listed as ≥ 3.1 fold.

Turning to `Nc1c2ccccc2nc2ccccc12` [9‐aminoacridine], the “Increase in colony counts per plate” value in data set [1] (experiments without S9‐mix) is on record as ≥ 3.1 fold.

In the case of `Cc1cc(N)c2c(OCC(C)(C)C(=O)NC(C)C)cccc2n1` [S9379, 4‐amino‐5‐(3‐(isopropylamino)‐2,2‐dimethyl‐3‐oxopropoxy)‐2‐methylquinoline], the “Decarboxylation product, % of [FL‐no: 16.130] nominal” value in data set [2] (setting [17]) is 0.82%; in data set [2] (setting [18]), 0.86%; in data set [2] (setting [19]), 0.94%. Further, the Decarboxylation product concentration in data set [2] (setting [17]) is 0.041 mg/kg; in [2] (setting [18]), 0.043 mg/kg; in [2] (setting [19]), 0.14 mg/kg. Further, the “Breakdown product S9379, % of nominal [FL‐no: 16.130] concentration” value in data set [2] (cake, cookie and candy prototypes) is < 1%. Also, the “Concentration of potential degradant S9379” value in [2] (sulfate salt in hard candy, nominal 24 mg/kg) is 0.04 mg/kg; in [2] (setting [20]) it was 0.02 mg/kg. Also, the “S9379, % of nominal sulfate salt concentration” value in data set [2] (setting [20]) is recorded as 0.1%.

With `Cc1nc2cccc(OCC(C)(C)C(=O)NC(C)C)c2c(N)c1C(=O)[O-].[Na+]` [[FL‐no: 16.130] sodium salt, sodium 4‐amino‐5‐(3‐(isopropylamino)‐2,2‐dimethyl‐3‐oxopropoxy)‐2‐methylquinoline‐3‐carboxylate], in data set [1] (any concentration including 5,000 μg per plate), the “Toxicity to tester strains” value is “No toxicity was observed”. In data set [1] (plate incorporation and pre‐incubation, with and without metabolic activation, up to 5,000 μg/plate), the “Bacterial gene mutation assay result” value is “Negative”. Also, the “Cells with chromosomal aberrations” value in [3] (3 h with S9‐mix, 125 μg/mL (control 3.5%)) is recorded as 5.0%; in [3] (3 h with S9‐mix, 250 μg/mL) it was 4.0%; in data set [3] (3 h without S9‐mix, 250 μg/mL) it was 2.0%. For the same compound, the entries for the “Cells with structural chromosomal aberrations” value in [3] (125 μg/mL (control 1.5%)), in [3] (250 μg/mL) and in data set [3] (500 μg/mL) were 2.0%, 1.0% and 3.0%, respectively.

Consider `Cc1nc2cccc(OCC(C)(C)C(=O)NC(C)C)c2c(N)c1C(=O)O.Cc1nc2cccc(OCC(C)(C)C(=O)NC(C)C)c2c(N)c1C(=O)O.O.O.O=S(=O)(O)O` [[FL‐no: 16.130] sulfate salt, 4‐Amino‐5‐(3‐(isopropylamino)‐2,2‐dimethyl‐3‐oxopropoxy)‐2‐methylquinoline‐3‐carboxylic acid hemisulfate monohydrate salt], for which, in data set [4], the “Bioequivalence to the candidate substance (systemic exposure)” value is “equivalent”. Also, the Dry powder stability result in data set [5] (ref Senomyx, 2016) is reported as “stable”. Further, the Recovery is listed as 104% in [2] (sulfate salt in hard candy, 149°C ~30 min, nominal 24 mg/kg) and 100% in data set [2] (setting [20]).

Regarding `Cc1nc2cccc(OCC(C)(C)C(=O)NC(C)C)c2c(N)c1C(=O)O` [[FL‐no: 16.130], 4‐Amino‐5‐(3‐(isopropylamino)‐2,2‐dimethyl‐3‐oxopropoxy)‐2‐methylquinoline‐3‐carboxylic acid], in [6] (any dose tested), the PCE/NCE ratio entry is on record as “No statistically significant decrease”. Also, in data set [6] (single oral gavage, 500, 1,000 and 2,000 mg/kg bw, 24, 36, 48 h, no evidence of bone marrow exposure), the “In vivo micronucleus test result” value was “did not induce micronuclei; also recorded: Negative”. Further, the Solubility in ethanol in data set [7] (95% ethanol) is reported as 1,600 mg/L. Also, in data set [7] (in water), the Solubility (usually the concentration that dissolves in the medium under given conditions) is 0.7 mg/mL (≈ 1950 µM). Also, the Metabolism by microsomes result in data set [8] is given as “not metabolised”. In [9] (TA98, TA100, with and without S9‐mix), the “Bacterial gene mutation assay result” value is listed as “not mutagenic; also recorded: Negative”. Moreover, the Bacterial toxicity entry in data set [9] is recorded as “did not result in bacterial toxicity”. Moreover, the “Stability in aqueous solution” value in [5] (40°C, pH 2.8, 4.0 and 7.1, 4 weeks, ref applicant dossier) is listed as “stable”. Also, the Dry powder stability result in data set [5] (ref Senomyx, 2016) is “stable”. The “Dry powder stability at 175°C” value in data set [5] (175°C, S9379 only decomposition product, ref Senomyx, 2016) was “thermal degradation may take place”. For the same compound, the “Result, dose range‐finding developmental toxicity study” value in [10] is reported as 1,000 mg/kg bw per day. In addition, in data set [2] (setting [21]), the Mean measured concentration is listed as 5.8 mg/kg and the Measured concentration was 5.1 to 6.1 mg/kg. In addition, in data set [2] (cake, cookie and candy, typical processing conditions), the “Stability in model product prototypes” value is “stable”. For the same compound, in data set [2] (setting [22]), the Mean measured concentration is recorded as 5.4 mg/kg and the Measured concentration is 5.1 to 5.8 mg/kg. Further, in data set [2] (setting [23]), the Mean measured concentration was 13.1 mg/kg; the Measured concentration was 12.7 to 13.4 mg/kg; the “Recovery, % of nominal concentration” value was 87%. In addition, the “NOAEL following 13 weeks of dietary administration” value in [11] was 100 mg/kg bw per day. The Metabolism by microsomes result in [12] is “not metabolised”. The “NOAEL, developmental toxicity study in the rat” value in [13] is 1,000 mg/kg bw per day. In data set [14] (setting [24]), the “Combined mean AUC0–24” value is 0.232 µg·h/mL and the “Combined mean Cmax” value was 0.154 µg/mL. Also, the “Oral bioavailability (%F)” value in data set [14] (oral gavage, male and female rats, listed as candidate substance) is recorded as 0.53–1.19%. In addition, in [14] (repeated oral dosing, seven consecutive days), the Accumulation in plasma result is on record as “No significant accumulation”. Further, the Cmax (as a rule, the maximum level reached in the sampled fluid or tissue) in data set [15] is 0.317 µM. For the same compound, the Margin of safety in the data set “Margins of safety” is recorded as 27,000. Moreover, in data set [16], the Recovered in faeces was 75.5–99.5% and the Recovered in urine is 0.1–0.6%. In addition, the “Average recovered from faeces and urine” value in data set [16] (female rats) is on record as 91.4%. Further, the “Average recovered from faeces and urine” value in data set [16] (male rats) is 86.2%.

Turning to `c1ccc2c(c1)cc1ccc3cccc4ccc2c1c34` [benzo[α]pyrene], the “Increase in colony counts per plate” value in data set [1] (experiments with S9‐mix) was ≥ 3.1 fold.

With `O=P1(N(CCCl)CCCl)NCCCO1` (stereo not shown) [cyclophosphamide monohydrate], the “Increase in colony counts per plate” value in data set [1] (experiments with S9‐mix) is ≥ 3.1 fold.

As to `COS(C)(=O)=O` [methyl methanesulfonate], the “Increase in colony counts per plate” value in data set [1] (experiments without S9‐mix) is reported as ≥ 3.1 fold.

As to `[N-]=[N+]=[N-].[Na+]` [sodium azide], the “Increase in colony counts per plate” value in data set [1] (experiments without S9‐mix) is given as ≥ 3.1 fold.
